Results on 13 compounds are retold here after patent US20200361871A1 (Enterprise Therapeutics Ltd., priority 2018, published 2020).

In this assay the target is human TMEM16A (TMEM16Aabc variant) (Homo sapiens, UniProt Q5XXA6, DEL476-501, form not given). The assay can be described thus: Automated whole-cell patch clamp (Qpatch) TMEM16A potentiator assay in FRT cells stably expressing human TMEM16A. It is filed as cell-based. The note with it: for % Potentiation @ 3.33 μM Avg: 3.33 μM solution of test compound, percentage increase of baseline TMEM16A current; for EC50: calculated EC50, Qpatch TMEM16A current at +70 mV. In short, it runs like this:
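Potentiation was read as the rise in peak +70 mV current over baseline (%), from cumulative 5-min additions of compound. Recordings used whole-cell automated patch of FRT cells stably carrying human TMEM16Aabc, with pipette Ca2+ buffered to give ~20% maximal current. EC50 and efficacy came from concentration-response fits.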

Structures are written as SMILES.

Sequence of human TMEM16A (TMEM16Aabc variant) (Q5XXA6 with tags, fused parts or gaps DEL476-501): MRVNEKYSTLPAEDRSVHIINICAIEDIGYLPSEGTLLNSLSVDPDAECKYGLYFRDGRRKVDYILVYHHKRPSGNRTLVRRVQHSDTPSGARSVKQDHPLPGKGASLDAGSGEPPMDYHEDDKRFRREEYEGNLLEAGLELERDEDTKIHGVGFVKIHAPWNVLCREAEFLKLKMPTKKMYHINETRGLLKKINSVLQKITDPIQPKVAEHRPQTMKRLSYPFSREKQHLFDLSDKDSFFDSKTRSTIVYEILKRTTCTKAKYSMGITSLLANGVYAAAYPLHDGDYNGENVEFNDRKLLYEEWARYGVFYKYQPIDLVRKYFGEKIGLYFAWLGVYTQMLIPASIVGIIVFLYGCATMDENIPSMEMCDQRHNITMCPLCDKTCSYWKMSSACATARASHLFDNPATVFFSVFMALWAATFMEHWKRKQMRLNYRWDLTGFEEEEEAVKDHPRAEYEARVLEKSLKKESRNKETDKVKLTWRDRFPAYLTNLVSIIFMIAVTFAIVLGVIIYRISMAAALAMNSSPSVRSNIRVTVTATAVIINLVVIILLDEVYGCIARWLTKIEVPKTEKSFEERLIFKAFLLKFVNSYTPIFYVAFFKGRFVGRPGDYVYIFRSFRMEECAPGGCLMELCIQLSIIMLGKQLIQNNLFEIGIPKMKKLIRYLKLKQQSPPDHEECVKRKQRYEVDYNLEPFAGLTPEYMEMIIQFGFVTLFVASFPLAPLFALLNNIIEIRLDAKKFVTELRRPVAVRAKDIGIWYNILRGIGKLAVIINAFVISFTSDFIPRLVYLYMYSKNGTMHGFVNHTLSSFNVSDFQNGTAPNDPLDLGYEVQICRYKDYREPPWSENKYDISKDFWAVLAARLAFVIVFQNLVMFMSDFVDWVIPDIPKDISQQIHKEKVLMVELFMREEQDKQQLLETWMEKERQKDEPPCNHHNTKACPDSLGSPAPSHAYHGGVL

Regarding `CC(C)C(C)(C)NC(=O)c1cc(NC(=O)Cc2cc(Cl)ccc2O)ccn1` [Example 7.6, 4-[[2-(5-Chloro-2-hydroxy-phenyl)acetyl]amino]-N-(1,1,2-trimethylpropyl)pyridine-2-carboxamide], the “% Potentiation @ 3.33 μM Avg” value came to 285% and the half-maximal effective concentration (EC50) is 100 nM. `CC(C)(C)OC(=O)N1CCCC(NC(=O)c2cccc(NC(=O)Cc3cc(Cl)ccc3O)c2)C1` (stereo not shown) [Example 8, tert-Butyl-3-[[3-[[2-(5-chloro-2-hydroxy-phenyl)acetyl]amino]benzoyl]amino] piperidine-1-carboxylate]: the “% Potentiation @ 3.33 μM Avg” value is recorded as 88% and the concentration for a half-maximal effect (EC50) was 3020 nM. On the same counts, the results for `O=C(Cc1cc(Cl)ccc1O)Nc1ccnc(C(=O)NCc2ccccn2)c1` [Example 32.3, 4-[[2-(5-Chloro-2-hydroxy-phenyl)acetyl]amino]-N-(2-pyridylmethyl)pyridine-2-carboxamide] are 288% and 290 nM. As to `O=C(Cc1cc(Cl)ccc1O)Nc1ccnc(C(=O)NC2(CO)CCOCC2)c1` [Example 53, 4-[[2-(5-Chloro-2-hydroxy-phenyl)acetyl]amino]-N-[4-(hydroxymethyl)tetrahydropyran-4-yl]pyridine-2-carboxamide], the “% Potentiation @ 3.33 μM Avg” value was 184% and the EC50 was 390 nM. The corresponding values for `O=C(Cc1cc(Cl)ccc1O)Nc1ccnc(C(=O)N[C@H]2CCC[C@H]2O)c1` [Example 35.19, 4-[[2-(5-Chloro-2-hydroxy-phenyl)acetyl]amino]-N-[(1S,2R)-2-hydroxycyclopentyl]pyridine-2-carboxamide] are 248% and 470 nM. As for `CC(C)(C#N)NC(=O)c1cc(NC(=O)c2cnn(Cc3ccccc3)c2)ccn1` [Example 83.21, 4-[(1-Benzylpyrazole-4-carbonyl)amino]-N-(1-cyano-1-methyl-ethyl)pyridine-2-carboxamide], the “% Potentiation @ 3.33 μM Avg” value is 70%. Regarding `CC(C)(C#N)NC(=O)c1cc(NC(=O)C2CCC(F)(F)C2)ccn1` (stereo not shown) [Example 83.3, N-(1-Cyano-1-methyl-ethyl)-4-[(3,3-difluorocyclopentanecarbonyl)amino]pyridine-2-carboxamide], the “% Potentiation @ 3.33 μM Avg” value came to 16%.

For the compound `COCC(C)(C#N)NC(=O)c1cc(NC(=O)Cc2cc(Cl)ccc2O)ccn1` (stereo not shown) [Example 35.27, 4-[[2-(5-Chloro-2-hydroxy-phenyl)acetyl]amino]-N-(1-cyano-2-methoxy-1-methyl-ethyl)pyridine-2-carboxamide], the “% Potentiation @ 3.33 μM Avg” value turned out to be 496% and the EC50 was 330 nM. On the same counts, the results for `CC(C)(C)NC(=O)c1cccc(NC(=O)Cc2cc(F)cc(F)c2O)c1` [Example 2.9, N-tert-Butyl-3-[[2-(3,5-difluoro-2-hydroxy-phenyl)acetyl]amino] benzamide] are 148% and 990 nM. On the same counts, the results for `CC(C)(C)NC(=O)c1cc(NC(=O)C2CCCCc3ccccc32)ccn1` (stereo not shown) [Example 5.26, N-tert-Butyl-4-(6,7,8,9-tetrahydro-5H-benzo[7]annulene-5-carbonylamino) pyridine-2-carboxamide] are 110% and 1200 nM.

For the compound `CCC(C)(C)NC(=O)c1cc(NC(=O)Cc2ccc(F)cc2O)ccn1` [Example 3.1a, N-(1,1-Dimethylpropyl)-4-[[2-(4-fluoro-2-hydroxy-phenyl)acetyl]amino]pyridine-2-carboxamide], the “% Potentiation @ 3.33 μM Avg” value amounted to 128% and the EC50 is 180 nM. `Cn1nc(-c2ccccc2)cc1C(=O)Nc1ccnc(C(=O)NC(C)(C)C#N)c1` [Example 83.22, N-(1-Cyano-1-methyl-ethyl)-4-[(2-methyl-5-phenyl-pyrazole-3-carbonyl)amino]pyridine-2-carboxamide]: the “% Potentiation @ 3.33 μM Avg” value came out at 85%. Turning to `CC(C)(CF)NC(=O)c1cc(NC(=O)Cc2ccccc2Cl)ccn1` [Example 30.10, 4-[[2-(2-Chlorophenyl)acetyl]amino]-N-(2-fluoro-1,1-dimethyl-ethyl)pyridine-2-carboxamide], the “% Potentiation @ 3.33 μM Avg” value was determined as 265%.

A word on the EC50: it is the concentration at which the effect is half-maximal.
